Measurements from ChEMBL document CHEMBL1137532, “Mutation and inhibition studies of mevalonate 5-diphosphate decarboxylase” (Bioorg Med Chem Lett, 2007).

What was measured:
Rattus norvegicus = organism: Rattus norvegicus; assay: Activity of wild type MDD in rat liver
[1] = Inhibition of rat MDD
[2] = substrate: C[C@@](O)(CCOP(=O)(O)OP(=O)(O)O)CC(=O)O; assay: (§1) Activity of MDD K27A mutant; conditions: Rattus norvegicus
[3] = substrate: Nc1ncnc2c1ncn2[C@@H]1O[C@H](COP(=O)(O)OP(=O)(O)OP(=O)(O)O)[C@@H](O)[C@H]1O; assay: as §1; conditions: Rattus norvegicus
[4] = substrate: C[C@@](O)(CCOP(=O)(O)OP(=O)(O)O)CC(=O)O; assay: (§2) Activity of MDD R154A mutant; conditions: Rattus norvegicus
[5] = substrate: Nc1ncnc2c1ncn2[C@@H]1O[C@H](COP(=O)(O)OP(=O)(O)OP(=O)(O)O)[C@@H](O)[C@H]1O; assay: as §2; conditions: Rattus norvegicus

Molecule: Nc1ncnc2c1ncn2[C@@H]1O[C@H](COP(=O)(O)OP(=O)(O)OP(=O)(O)O)[C@@H](O)[C@H]1O
- Km (Rattus norvegicus): 530 µM

Molecule: CCCC(C)(O)CCOP(=O)(O)OP(=O)(O)O (stereo unspecified)
- IC50 [1]: 120 µM

Molecule: CC(O)(CCF)CCOP(=O)(O)OP(=O)(O)O (stereo unspecified)
- IC50 [1]: 50 µM

Molecule: CC(O)(CCOP(=O)(O)OP(=O)(O)O)Cc1ccccc1 (stereo unspecified)
- IC50 [1]: 140 µM

Molecule: CC(O)(CCOP(=O)(O)OP(=O)(O)O)C(F)(F)C(=O)O (stereo unspecified)
- IC50 [1]: 7.5 µM

Molecule: C[C@@](O)(CCOP(=O)(O)OP(=O)(O)O)CC(=O)O
- Km (Rattus norvegicus): 36 µM
- Vmax (Rattus norvegicus): 6.6 µmol/min/mg

Molecule: CCC(O)(CCOP(=O)(O)OP(=O)(O)O)C(F)C(=O)O (stereo unspecified)
- IC50 [1]: 20 µM

Molecule: CC(C)(O)CCOP(=O)(O)OP(=O)(O)O
- IC50 [1]: 60 µM

Molecule: CCC(C)(O)CCOP(=O)(O)OP(=O)(O)O (stereo unspecified)
- IC50 [1]: 80 µM

B1: Diphosphomevalonate decarboxylase (Rattus norvegicus), Q62967 K27A (protein)
chain: MASEKPQDLMVTCTAPVNIAVIKYWGARDEALILPINPSLSVTLHQDQLKTTTTAAISKDFTEDRIWLNGREEDVGQPRLQACLREIRRLARKRRSTGDGDALPLSLGYKVHVASVNNFPTAAGLASSAAGYACLAYTLARVYGVEGDLSEVARRGSGSACRSLYGGFVEWQMGEQADGKDSIARQIAPEWHWPQLRVLILVVSAEKKPTGSTVGMQTSVATSTLLKFRAESIVPERMKEMTRCIQEQDFQAFAQLTMKDSNQFHATCLDTFPPISYLNDTSRRIIQLVHRFNAHHGQTKVAYTFDAGPNAVIFTLEDTVAEFVAAVRHSFPPAANGDKFLKGLQVAPVLLSDELKTSLATEPSPGGVQYIIATQVGPGPQVLDDPHHHLLGPDGLPQRDL
- Km [2]: 750 µM
- Vmax [2]: 0.14 µmol/min/mg
- Km [3]: 1870 µM

B2: Diphosphomevalonate decarboxylase (Rattus norvegicus), Q62967 R154A (protein)
chain: MASEKPQDLMVTCTAPVNIAVIKYWGKRDEALILPINPSLSVTLHQDQLKTTTTAAISKDFTEDRIWLNGREEDVGQPRLQACLREIRRLARKRRSTGDGDALPLSLGYKVHVASVNNFPTAAGLASSAAGYACLAYTLARVYGVEGDLSEVAARGSGSACRSLYGGFVEWQMGEQADGKDSIARQIAPEWHWPQLRVLILVVSAEKKPTGSTVGMQTSVATSTLLKFRAESIVPERMKEMTRCIQEQDFQAFAQLTMKDSNQFHATCLDTFPPISYLNDTSRRIIQLVHRFNAHHGQTKVAYTFDAGPNAVIFTLEDTVAEFVAAVRHSFPPAANGDKFLKGLQVAPVLLSDELKTSLATEPSPGGVQYIIATQVGPGPQVLDDPHHHLLGPDGLPQRDL
- Km [4]: 920 µM
- Vmax [4]: 0.34 µmol/min/mg
- Km [5]: 1400 µM
